{"source": "patent US20110201679A1", "about": "“Use of Tocotrienols for Elevating IKBKAP Gene Expression and Treating Neurodegenerative Diseases or Disorders” (priority 2004, published 2011)", "format_in_all_cases": "cell-based, human", "key": {"IKAP transcript [1]": {"system": "IKAP transcript", "assay": "Real-time RT-PCR analysis of IKAP RNA in FD-derived and normal fibroblast cells", "conditions": "for effect on cellular levels of IKAP transcripts: 48 h, 25 and 2.5 μg/ml", "protocol": "In order to identify agents that could modulate the level of the wild type IKAP transcript produced in FD-derived cells, either by increasing transcription or modulating splicing, FD-derived fibroblast cells (GM00850) were treated with a variety of biological agents. RNA was isolated from the treated cells and was subjected to real-time RT-PCR analysis using primers specific for the wild-type IKAP transcript. More specifically, FD-derived fibroblast cells, seeded in 96-well plates at a concentration of 4000 cells/well for at least one day prior to treatment, were treated in triplicate for approximately 48 h unless noted otherwise. After treatment, the cells were washed once with PBS and then lysed in 50 μl of Cell-to-cDNA lysis buffer (Ambion) at 75° C. for 12 min. After one freeze-thaw cycle, 4 μl of lysate was used in 20 μl RT-PCRs. The Quantitect SYBR Green RT-PCR Kit (Qiagen) was used for real-time RT-PCR analysis of the relative quantities of the exon 20-containing transcript (wild-type), the exon 20-lacking transcript (mutant), as well as an exon 34-35-containing transcript that is unaffected by the FD-causing mutation (total). An ABI PRISM 7000 Sequence Detection System (Applied Biosystems), programmed as follows, was used to perform the real-time RT-PCR and analysis: 50° C. for 30 min and 95° C. for 15 min for one cycle, followed by 40 cycles of 94° C. for 15 s, 57-60° C. for 30 s, and 72° C. for 30 s. To present relative amounts of PCR product obtained, results were expressed as changes in the threshold cycle (ΔCT) compared to untreated cells. The threshold cycle refers to the PCR cycle at which the fluorescence of the PCR is increased to a calculated level above background. A change of 1.0 in CT, assuming 100% PCR efficiency, would reflect a twofold change in the starting amount of the RNA template that was amplified.\nTo control for the amount of RNA present in the samples, RT-PCR amplification of ribosomal 18S RNA was performed on all cell lysates. […] For this analysis, TaqMan Ribosomal RNA Control Reagents were used with the TaqMan EZ RT-PCR Kit (Applied Biosystems) as per the manufacturer's protocol.\nTo characterize the kinetics of the δ-tocotrienol-mediated accumulation of the IKAP transcript, FD-derived (GM00850 and GM04663) and normal (GM02912) fibroblast cells were exposed to 12.5 μg/ml of δ-tocotrienol for periods up to 48 h and the amount of the IKAP-encoding transcripts was determined by real-time RT-PCR, as described above.\nTo evaluate the IKAP mRNA-inducing ability of other molecules in the vitamin E family that are related to […], GM00850, GM04663, and GM02912 cells were incubated in the absence or presence of 25 and 2.5 μg/ml of either α, β, γ, or δ tocopherols or tocotrienols.\nAs described above, α, β, γ or δ tocopherol alone had no impact on IKAP mRNA levels when FD-derived or normal fibroblasts were treated for 48 hr. To determine if α-tocopherol in combination with tocotrienols would have an impact on IKAP mRNA levels, FD-derived GM00850 and GM04663 fibroblasts were treated for 48 hr with either 25 or 12.5 μg/mL of a mixture of α, β, γ and δ tocotrienols alone or in combination with 50 μg/mL of α-tocopherol."}, "[2]": {"system": "IKBKAP gene transcription", "assay": "Nuclear run-on transcription assay in GM04663 cells", "conditions": "48 h, 12.5 μg/ml, versus untreated cells", "protocol": "The δ-tocotrienol-mediated accumulation of the IKAP-encoding transcripts was either the result of an elevation in the level of gene transcription or the stabilization of this RNA. To distinguish between these possibilities, nuclear run-on transcription assays were performed on cells incubated in either the presence or absence of δ-tocotrienol. Isolation of nuclei and transcription in the presence of [α-^32P]UTP (Perkin Elmer Life Sciences) were performed essentially as described by B. Y. Rubin (J. Biol. Chem. 266: 24245-24248 (1991)). Briefly, confluent monolayers of GM04663 cells in 175 cm^2 flasks were incubated for 48 h in the presence or absence of 12.5 μg/ml δ-tocotrienol. The cells were then lysed by Dounce homogenization and the resultant nuclei were incubated with 250 μCi [α-^32P]UTP. The radiolabeled RNA was treated with DNase, purified with Trizol LS reagent (Invitrogen), and then hybridized to 5 μg of plasmid containing either a full-length cDNA encoding IKAP or a cDNA encoding GAPDH that was immobilized on Nytran Super-Charge nylon membrane (Schleicher & Schuell) using a spot-blot apparatus. The amount of radiolabeled RNA bound was detected by autoradiography and then quantitated by densitometric scanning of the X-ray film."}, "full-length IKAP": {"system": "full-length IKAP", "assay": "Western blot analysis of full-length IKAP in fibroblast cells", "conditions": "12.5 μg/ml", "protocol": "Western blot analysis was performed on cellular extracts prepared from δ-tocotrienol-treated FD-derived (GM00850 and GM04663) and normal (GM02912) fibroblast cells, using a monoclonal antibody generated against a peptide corresponding to exons 23-28 of IKAP that only recognize the full-length IKAP. Basically, cells treated for 48 h with 12.5 μg/ml of δ-tocotrienol were washed twice with PBS and lysed in 0.5 M Tris-HCl, pH 6.8, containing 1.4% SDS. Western blot analysis was performed essentially as described by B. Y. Rubin (Proc. Natl. Acad. Sci. USA 82: 6637-6641 (1985)). Essentially, equal amounts of protein fractionated on a 7% NuPAGE Tris-Acetate Gel (Invitrogen) were blotted onto nitrocellulose (Bio-Rad) and probed overnight with a monoclonal anti-body (BD Biosciences) directed against the carboxyl end (exons 23-28) of IKAP. The blot was then washed and probed with a goat anti-mouse antibody conjugated to alkaline phosphatase (Promega), followed by detection with Western Blue Substrate solution (Promega)."}, "IKAP transcript [3]": {"system": "IKAP transcript", "assay": "Real-time RT-PCR analysis of wild-type IKAP RNA in LA1-55n cells", "conditions": "LA1-55n neuroblastoma cells, 48 h, varying concentrations", "protocol": "FIG. 7. Real-time RT-PCR analysis of wild-type IKAP RNA in LA1-55n cells. cDNA was prepared from LA1-55n cells incubated for 48 h in the absence or presence of varying concentrations of δ-tocotrienol. The relative amounts of IKAP RNA present in these cells were determined by real-time RT-PCR. The results presented represent mean values obtained in three experiments, each done in triplicate.\nThe response of the neuroblastoma-derived LA1-55n cell line, which has characteristics of sympathetic neurons (J. L. Biedler, et al., “Human Neuroblastoma Cell Differentiation, in: D. Raghavan, et al., Principles and Practice of Genitourinary Oncology, Lippincott-Raven, pp. 1053-1061, (1997); D. L. Lazarova, et al., “A Neuronal-Specific RNA-Binding Protein, is a Putative Regulator of N-myc pre-mRNA Processing/Stability in Malignant Human Neuroblasts”, Oncogene 18: 2703-2710 (1999)), to treatment with […] was examined."}, "[4]": {"conditions": "GM00850, GM04663 and GM02912 cells"}}, "note": "“Also recorded” adds a separate entry of the source.", "data": [{"smiles": "Cc1c(C)c2c(c(C)c1O)CC[C@@](C)(CCC[C@H](C)CCC[C@H](C)CCCC(C)C)O2", "note": "[α-tocopherol, α-Tocopherol]", "values": [{"measurement": "effect on cellular levels of IKAP transcripts", "setting": "IKAP transcript [1]; [4]", "value": "no impact; also recorded: no effect"}, {"measurement": "enhancement of tocotrienol-induced increase in IKAP mRNA", "setting": "IKAP transcript [1]; GM00850 and GM04663, 48 hr, 50 μg/mL α-tocopherol with 25 or 12.5 μg/mL mixture of α, β, γ and δ tocotrienols, versus tocotrienol-only treated cells", "value": "≤ 40", "unit": "%"}, {"measurement": "effect on IKAP mRNA levels, alone", "setting": "IKAP transcript [1]; GM00850 and GM04663 fibroblasts, 48 hr, 50 μg/mL α-tocopherol alone", "value": "no effect"}]}, {"smiles": "CC(C)=CCC/C(C)=C/CC/C(C)=C/CC[C@]1(C)CCc2c(C)c(O)c(C)c(C)c2O1", "note": "[α-tocotrienol, α-Tocotrienol]", "values": [{"measurement": "effect on cellular levels of IKAP transcripts", "setting": "IKAP transcript [1]; [4]", "value": "as much as sixfold"}]}, {"smiles": "Cc1cc(O)c(C)c2c1O[C@](C)(CCC[C@H](C)CCC[C@H](C)CCCC(C)C)CC2", "note": "[β-tocopherol, β-Tocopherol]", "values": [{"measurement": "effect on cellular levels of IKAP transcripts", "setting": "IKAP transcript [1]; [4]", "value": "no impact; also recorded: no effect"}]}, {"smiles": "CC(C)=CCC/C(C)=C/CC/C(C)=C/CC[C@]1(C)CCc2c(C)c(O)cc(C)c2O1", "note": "[β-tocotrienol, β-Tocotrienol]", "values": [{"measurement": "effect on cellular levels of IKAP transcripts", "setting": "IKAP transcript [1]; [4]", "value": "as much as sixfold"}]}, {"smiles": "Cc1c(O)cc2c(c1C)O[C@](C)(CCC[C@H](C)CCC[C@H](C)CCCC(C)C)CC2", "note": "[γ-tocopherol, γ-Tocopherol]", "values": [{"measurement": "effect on cellular levels of IKAP transcripts", "setting": "IKAP transcript [1]; [4]", "value": "no impact; also recorded: no effect"}]}, {"smiles": "CC(C)=CCC/C(C)=C/CC/C(C)=C/CC[C@]1(C)CCc2cc(O)c(C)c(C)c2O1", "note": "[γ-tocotrienol, γ-Tocotrienol]", "values": [{"measurement": "effect on cellular levels of IKAP transcripts", "setting": "IKAP transcript [1]; [4]", "value": "as much as sixfold"}]}, {"smiles": "Cc1cc(O)cc2c1O[C@](C)(CCC[C@H](C)CCC[C@H](C)CCCC(C)C)CC2", "note": "[δ-tocopherol, δ-Tocopherol]", "values": [{"measurement": "effect on cellular levels of IKAP transcripts", "setting": "IKAP transcript [1]; [4]", "value": "no impact; also recorded: no effect"}]}, {"smiles": "CC(C)=CCC/C(C)=C/CC/C(C)=C/CC[C@]1(C)CCc2cc(O)cc(C)c2O1", "note": "[δ-tocotrienol, δ-Tocotrienol]", "values": [{"measurement": "level of wild-type IKAP transcript", "setting": "IKAP transcript [1]; FD-derived fibroblast GM00850, about 48 h, varying concentrations", "value": "concentration-dependent elevation"}, {"measurement": "change in threshold cycle (ΔCT) relative to untreated cells", "setting": "IKAP transcript [1]; GM00850, 48 h, highest concentration tested", "value": 2.5}, {"measurement": "increase in levels of truncated and wild-type IKAP transcripts", "setting": "IKAP transcript [1]; GM00850, 48 h, highest concentration tested, relative to untreated cells", "value": "as much as a sixfold increase"}, {"measurement": "levels of IKAP-encoding transcripts over time", "setting": "IKAP transcript [1]; GM00850, GM04663 and GM02912 cells, 12.5 μg/ml, 24 h after start of treatment, versus untreated cells, accumulation continues through 48 h", "value": "significantly elevated levels"}, {"measurement": "effect on cellular levels of IKAP transcripts", "setting": "IKAP transcript [1]; [4]", "value": "as much as sixfold"}, {"measurement": "increase in IKBKAP gene transcription", "setting": "[2]", "value": "approximately 3.5 fold"}, {"measurement": "increase in amount of full-length IKAP produced", "setting": "full-length IKAP; FD-derived fibroblasts GM00850 and GM04663, 48 h, on average", "value": "approximate two-fold increase"}, {"measurement": "IKAP level as percentage of the level present in untreated normal (GM02912) cells", "setting": "full-length IKAP; treated FD-derived cells GM00850 and GM04663, 48 h, untreated FD cells 26-30%", "value": "48-65%"}, {"measurement": "increase in IKAP transcript levels", "setting": "IKAP transcript [3]", "value": "almost a twofold increase"}]}]}
